Reference: patent publication US20240109842A1, “ACRYLAMIDE COMPOUNDS” (OTSUKA PHARMACEUTICAL CO., LTD., priority 2019, published 2024)
Where two headings read alike, the source gives them in different places.

System: immortalized megakaryocyte cell line
Experiment: Test Example 1: platelet production, shake culturing
Type: cell-based
Conditions: for fold induction at 10 µM: Platelet, 144 h, read-out: Amount of platelet production (vs. Control); for Amount of platelet production (vs. Control): aryl hydrocarbon receptor antagonist Compound A5 0.1 μM added at cell seeding, counted after 6 days
Description: The immortalized megakaryocyte cell line obtained according to the method described in WO 2016/204256 was washed twice with D-PBS(−) and then cultured in medium not containing doxycycline to terminate forced expression (cultured under conditions where gene expression is OFF). Shake culturing at 100 rpm was performed in the following medium after the cells were seeded in a 125-mL polycarbonate Erlenmeyer flask (Corning #431143) at 25 mL/flask and a seeding density of 1×10^5 cells/mL. Culturing conditions were 37° C. and 5% CO2. The medium was obtained by adding the following components to IMDM serving as the basal medium (concentrations indicate final concentrations). • FBS 15% • L-Glutamine 2 mM • ITS 100-fold dilution • MTG 450 μM • Ascorbic acid 50 μg/mL • SCF 50 ng/mL • TA-316 0.1 μg/mL • ADAM inhibitor 15 μM • ROCK inhibitor 0.5 μM […] After culturing for 6 days in total, the number of platelets was measured. The measurement method was as follows. The same operation was performed for control. At 6 days after initiation of the culturing under conditions where gene expression was OFF, a part of the culture supernatant was collected, and suspended with the following antibody and Flow-Count Fluorospheres (Beckman Coulter #7547053) to perform staining. • APC-labeled anti-CD41 antibody (BioLegend #303710) • eFluor 450-labeled anti-CD42a antibody (eBioscience #48-0428-42) • PE-labeled anti-CD42b antibody (BioLegend #303906) At 30 minutes after staining, number of platelets (CD41, CD42a and CD42b-positive cells) was counted by using FACSVerse (manufactured by BD Japan) with Flow-Count Fluorospheres. The number of platelets was given as a percentage of the control.

[1] = DMSO added at cell seeding (no AhR antagonist), compound 10 μM added at Day 3, platelets (CD41, CD42a, CD42b-positive) counted after 6 days

Row | SMILES | fold induction at 10 µM | Amount of platelet production (vs. Control) (compound 10 μM added at Day 3) | fold induction at 10 µM [1]
1 | COc1cccc2c(/C=C/C(=O)NCCc3sccc3-c3ccccc3)c[nH]c12 [Example 21] | 1.5 to 6.5 | ++ (not less than 6.5 times) | 
2 | COc1cccc2c(/C=C/C(=O)NCCc3occc3-c3ccccc3)c[nH]c12 [Example 44] |  | ++ (not less than 6.5 times) | 1.5 to 6.5
3 | COc1cccc2c(/C=C/C(=O)NCCc3ccccc3-c3ccc(F)cc3)c[nH]c12 [Example 28] |  | ++ (not less than 6.5 times) | 1.5 to 6.5
4 | COc1cnc(-c2ccccc2CCNC(=O)/C=C/c2c[nH]c3c(OC)cccc23)nc1 [Example 56] |  | ++ (not less than 6.5 times) | 1.5 to 6.5
5 | CCOc1ncccc1CCNC(=O)/C=C/c1c[nH]c2c(OC)cccc12 [Example 29, (E)-N-[2-(2-ethoxypyridine-3-yl)ethyl]-3-(7-methoxy-1H-indol-3-yl)prop-2-enamide] |  | ++ (not less than 6.5 times) | 1.5 to 6.5
6 | COc1cccc2c(/C=C/C(=O)NCCc3ccccc3-c3ccccc3F)c[nH]c12 [Example 27] |  | ++ (not less than 6.5 times) | 1.5 to 6.5
7 | COc1cccc2c(/C=C/C(=O)NCCc3ccccc3-c3cccnn3)c[nH]c12 [Example 33] |  | ++ (not less than 6.5 times) | 1.5 to 6.5
8 | COc1cccc2c(/C=C/C(=O)NCCc3sccc3-c3ccccn3)c[nH]c12 [Example 32] |  | ++ (not less than 6.5 times) | 1.5 to 6.5
9 | Cc1cccc2c(/C=C/C(=O)NCCc3ccccc3-c3ncccn3)c[nH]c12 [Example 46] |  | ++ (not less than 6.5 times) | 1.5 to 6.5
10 | COc1cccc2c(/C=C/C(=O)NCCc3sccc3-c3ncccn3)c[nH]c12 [Example 45, (E)-3-(7-methoxy-1H-indol-3-yl)-N-[2-(3-pyrimidin-2-ylthiophen-2-yl)ethyl]prop-2-enamide] |  | ++ (not less than 6.5 times) | 1.5 to 6.5
11 | COc1cccc2c(/C=C/C(=O)NCCc3ccccc3-c3ncco3)c[nH]c12 [Example 15] | > 6.5 | ++ (not less than 6.5 times) | 
12 | COc1cccc2c(/C=C/C(=O)NCCc3sccc3-c3ccco3)c[nH]c12 [Example 31] |  | ++ (not less than 6.5 times) | 1.5 to 6.5
13 | COC(=O)n1cc(/C=C/C(=O)NCCc2ccccc2-c2ccccc2)c2cccc(OC)c21 [Example 43] |  | ++ (not less than 6.5 times) | 1.5 to 6.5
14 | CCSc1ccccc1CCNC(=O)/C=C/c1cn(C(C)=O)c2c(OC)cccc12 [Example 9] |  | ++ (not less than 6.5 times) | 1.5 to 6.5
15 | COc1cccc2c(/C=C/C(=O)NCCc3ccccc3OCC3CC3)c[nH]c12 [Example 6] | 1.5 to 6.5 | ++ (not less than 6.5 times) | 
16 | COc1cccc2c(/C=C/C(=O)NCCc3ccccc3-c3ccccc3)cn(C(C)=O)c12 [Example 24, (E)-3-(1-acetyl-7-methoxyindol-3-yl)-N-[2-(2-phenylphenyl)ethyl]prop-2-enamide] |  | ++ (not less than 6.5 times) | 1.5 to 6.5
17 | COc1nccc2c(/C=C/C(=O)NCCc3ccccc3-c3ncccn3)c[nH]c12 [Example 49] |  | ++ (not less than 6.5 times) | 1.5 to 6.5
18 | COc1cccc2c(/C=C/C(=O)NCCc3ccccc3-c3ccncn3)c[nH]c12 [Example 34] |  | ++ (not less than 6.5 times) | 1.5 to 6.5
19 | COc1cccc2c(/C=C/C(=O)NCCc3ccccc3-c3ccccc3)c[nH]c12 [Example 2] | 1.5 to 6.5 | ++ (not less than 6.5 times) | 
20 | COc1cccc2c(/C=C/C(=O)NCCc3ccccc3-c3ccccc3)cn(C(=O)c3ccccc3)c12 [Example 25, (E)-3-(1-benzoyl-7-methoxyindol-3-yl)-N-[2-(2-phenylphenyl)ethyl]prop-2-enamide] |  | ++ (not less than 6.5 times) | 1.5 to 6.5
21 | CCSc1ccccc1CCNC(=O)/C=C/c1c[nH]c2c(OC)cccc12 [Example 3] |  | ++ (not less than 6.5 times) | 1.5 to 6.5
22 | COc1cccc2c(/C=C/C(=O)NCCc3sccc3-c3cccs3)c[nH]c12 [Example 30] |  | ++ (not less than 6.5 times) | 1.5 to 6.5

Row | SMILES | fold induction at 10 µM | Amount of platelet production (vs. Control) (compound 10 μM added at Day 3) | fold induction at 10 µM [1]
23 | Cc1ccnc2c(/C=C/C(=O)NCCc3ccccc3-c3ncccn3)c[nH]c12 [Example 41] |  | ++ (not less than 6.5 times) | 1.5 to 6.5
24 | COCCn1cc(/C=C/C(=O)NCCc2ccccc2-c2ncccn2)c2cccc(OC)c21 [Example 54] |  | ++ (not less than 6.5 times) | 1.5 to 6.5
25 | COC(=O)c1ccccc1CCNC(=O)/C=C/c1c[nH]c2c(OC)cccc12 [Example 8] |  | ++ (not less than 6.5 times) | 1.5 to 6.5
26 | CCOc1ccsc1CCNC(=O)/C=C/c1c[nH]c2c(OC)cccc12 [Example 11] |  | ++ (not less than 6.5 times) | 1.5 to 6.5
27 | COc1cccn2c(/C=C/C(=O)NCCc3ccccc3-c3ncccn3)cnc12 [Example 40] |  | ++ (not less than 6.5 times) | 1.5 to 6.5
28 | O=C(/C=C/c1c[nH]c2c(Cl)cccc12)NCCc1ccccc1-c1ncccn1 [Example 48] |  | ++ (not less than 6.5 times) | 1.5 to 6.5
29 | COc1cccc2c(/C=C/C(=O)NCCc3ccccc3-c3ncc(F)cn3)c[nH]c12 [Example 51] |  | ++ (not less than 6.5 times) | 1.5 to 6.5
30 | COc1cccc2c(/C=C/C(=O)NCCc3ccccc3-c3nccs3)c[nH]c12 [Example 14] | 1.5 to 6.5 | ++ (not less than 6.5 times) | 
31 | COc1cccc2c(/C=C/C(=O)NCCc3ccccc3-c3cccs3)c[nH]c12 [Example 19, (E)-3-(7-methoxy-1H-indol-3-yl)-N-[2-(2-thiophene-2-ylphenyl)ethyl]prop-2-enamide] |  | ++ (not less than 6.5 times) | 1.5 to 6.5
32 | COCCOc1ccccc1CCNC(=O)/C=C/c1c[nH]c2c(OC)cccc12 [Example 35] |  | ++ (not less than 6.5 times) | 1.5 to 6.5
33 | COc1ccc(-c2ccccc2)c(CCNC(=O)/C=C/c2c[nH]c3c(OC)cccc23)c1 [Example 13] |  | ++ (not less than 6.5 times) | 1.5 to 6.5
34 | COc1cccc2c(/C=C/C(=O)NCCc3ccccc3-c3ncccn3)cn(C)c12 [Example 53] |  | ++ (not less than 6.5 times) | 1.5 to 6.5
35 | COc1cccc2c(/C=C/C(=O)NCCc3ccsc3-c3ccccc3)c[nH]c12 [Example 22] | 1.5 to 6.5 | ++ (not less than 6.5 times) | 
36 | COc1cccc2c(/C=C/C(=O)NCCc3ccccc3-c3ccsc3)c[nH]c12 [Example 20] | 1.5 to 6.5 | ++ (not less than 6.5 times) | 
37 | COc1cccc2c(/C=C/C(=O)NCCc3ccccc3-c3ccccc3)cn(C)c12 [Example 23] | 1.5 to 6.5 | ++ (not less than 6.5 times) | 
38 | COc1cccc2c(/C=C/C(=O)NCCc3ccccc3-c3ncc(C)cn3)c[nH]c12 [Example 52] |  | ++ (not less than 6.5 times) | 1.5 to 6.5
39 | COc1cccc2c1ccn2/C=C/C(=O)NCCc1ccccc1-c1ncccn1 [Example 39] |  | ++ (not less than 6.5 times) | 1.5 to 6.5
40 | COc1cccc2c(/C=C/C(=O)NCCc3cccc4ccc(C)nc34)c[nH]c12 [Example 42] |  | ++ (not less than 6.5 times) | 1.5 to 6.5
41 | CCNc1ccccc1CCNC(=O)/C=C/c1c[nH]c2c(OC)cccc12 [Example 5] |  | ++ (not less than 6.5 times) | 1.5 to 6.5
42 | COc1cccc2c(/C=C/C(=O)NCCc3ccccc3-c3ccccn3)c[nH]c12 [Example 7] |  | ++ (not less than 6.5 times) | 1.5 to 6.5
43 | COc1cccc2c(/C=C/C(=O)NCCc3ccccc3CSC)c[nH]c12 [Example 4] | 1.5 to 6.5 | ++ (not less than 6.5 times) | 
